From US20260079084A1, “COMPOUND, EXTRACELLULAR VESICLE STAINING AGENT, AND FLUORESCENT STAINING METHOD FOR EXTRACELLULAR VESICLES” (National University Corporation Tokai National Higher …, priority 2022, published 2026)

Key:
[1] = test system: milk-derived extracellular vesicles; experiment: Staining of milk-derived extracellular vesicles, analysis by high-performance liquid chromatography gel filtration system (Example 10 / Comparative example 1); conditions: staining agent 1 μM, room temperature 12 hours
Experimental: Commercially available pasteurized milk (by Seki milk or Takanashi) of 1 L was centrifuged at 8000 rpm for 30 minutes, and the supernatant was filtrated by a coffee filter. Subsequently, acetic acid was added thereto to be 1%, and the mixture was further centrifuged at 8000 rpm for 30 minutes. The supernatant thereof was further filtrated by a coffee filter. The liquid obtained after the filtration was filtrated by a filter of 0.45 μm (by Sartorius), and the filtrate was filtrated by a filter of 0.1 μm (by Sartorius). Since extracellular vesicles remain on the filter of 0.1 μm, the extracellular vesicles were washed with 5 mL of phosphate buffer solution three times. Eventually, extracellular vesicles were collected with 1 mL of phosphate buffer solution. Further, 10 μL of the purified extracellular vesicle liquid was diluted with 40 μL of phosphate buffer solution (hereafter, referred to as “extracellular vesicle preparation liquid”)
Compounds 1 to 9 synthesized in Examples 1 to 9 were diluted with DMSO to produce a staining agent used in Example 10.
ExoSparkler Exosome Membrane Labeling Kit-Red (ExoSP Model No. EX02, by Dojin) was diluted with a DMSO solution in accordance with the instructions for use to produce a staining agent of Comparative example 1.
The staining agent produced in Example 10 was added to an extracellular vesicle preparation liquid so that the final concentration of the staining agent became 1 μM. Further, 1 μL of the staining agent produced in Comparative example 1 was added to an extracellular vesicle preparation liquid. In Example 10 and Comparative example 1, the staining agent was added to the extracellular vesicle preparation liquid and then allowed to stand at room temperature for 12 hours. After 12 hours elapsed, 10 μL of the reaction product was analyzed by a high-performance liquid chromatography gel filtration system. […] Detection was performed on ExoSP at 560 nm for excitation and 600 nm for fluorescence detection and was performed on the compounds synthesized in Examples 1 to 8 at 480 nm for excitation and 530 nm for fluorescence detection. […]

[2] = test system: HEK293 cells; experiment: Tracking of labeled milk-derived extracellular vesicles introduced into cells (Example 15); type: cell-based
Experimental: (§1) The milk-derived extracellular vesicles (exosomes) prepared in the procedure of Example 10 were stained with GIF-2276 at room temperature for 12 hours to label the extracellular vesicles. Unreacted GIF-2276 was removed by Microcon 300K (by Millipore). Lysosomes in HEK293 cells (ThermoFisher) were labeled with LysoBrite Red, and GIF-2276-labeled milk-derived extracellular vesicles were added thereto. After 3 hours, the mixture was observed by a microscope. FIG. 6 illustrates the result. The upper left “2276” in FIG. 6 is a fluorescent photograph of the extracellular vesicles labeled with GIF-2276. The upper right “LysoBright” in FIG. 6 is a fluorescent photograph of the lysosomes labeled with LysoBrite Red. The lower left in FIG. 6 is a photograph obtained by merging the fluorescent photograph of the extracellular vesicles labeled with GIF-2276 and the fluorescent photograph of the lysosomes labeled with LysoBrite Red. The lower right in FIG. 6 is a photograph of HEK293 cells captured in visible light.

[3] = test system: extracellular vesicles of pasteurized milk; experiment: Correlation between gel filtration and plate reader detection of extracellular vesicles (Example 17 (2))
Experimental: Patent Literature 1 discloses that the use of GIF-2250 enables quantification of extracellular vesicles by a plate reader. The correlation between detection of extracellular vesicles by a plate reader with the use of GIF-2250 and detection of extracellular vesicles by gel filtration with the use of GIF-2276 synthesized in Example 1 was examined.
Pasteurized milk (Takanashi) was heated at 60, 70, and 80° C. for 30 minutes and cooled back to room temperature. The extracellular vesicles were then prepared by the procedure described in Example 10, and the pasteurized milk was added thereto so that the final concentration of GIF-2276 synthesized in Example 1 became 1 μM to label the extracellular vesicles. The mixture was analyzed by a high-performance liquid chromatography gel filtration system to find the area of the peak. Extracellular vesicles prepared in the same manner reacted with 3 μM of GIF-2250 to find the fluorescence quantity by using a fluorescent plate reader. Respective values were plotted to find a correlation.

[4] = test system: milk-derived extracellular vesicles; experiment: Staining of milk-derived extracellular vesicles with heat treatment, gel filtration analysis (Example 11 / Comparative example 2); conditions: untreated vs 80° C. for 5 minutes or 15 minutes
Experimental: Experiments were performed in the same procedure as in Example 10 except that, after the staining agent was added to the extracellular vesicle preparation liquid in Example 10, the mixture was immediately analyzed with a column (untreated), the mixture was analyzed after treated at 80° C. for 5 minutes, or the mixture was analyzed after treated at 80° C. for 15 minutes. Note that the compounds used in the experiments of Example 11 are labeled with the GIF numbers in the graphs.
Experiments were performed in the same procedure as in Comparative example 1 except that, after the staining agent was added to the extracellular vesicle preparation liquid in Comparative example 1, the mixture was immediately analyzed with a column (untreated), the mixture was analyzed after treated at 80° C. for 5 minutes, or the mixture was analyzed after treated at 80° C. for 15 minutes.

[5] = test system: milk-derived extracellular vesicles; experiment: Gel filtration comparison with compound of Patent Literature 1 (Example 17 / Comparative example 4); conditions: reaction time 3 hours at room temperature
Text: The present applicant has disclosed GIF-2250 illustrated below in Patent Literature 1. GIF-2250 differs from the compounds of the present application in that the portion indicated by “→” is NH. First, the effect of this difference in structure provided on size separation using gel filtration was observed. Note that the synthesis procedure of GIF-2250 is disclosed in Patent Literature 1. The features disclosed in Patent Literature 1 are incorporated in the present specification by reference in its entirety.
Experiments were performed in the same procedure as in Example 10 except that GIF-2276 and GIF-2250 (Comparative example 4), which is disclosed in Patent Literature 1, were used and the reaction time was 3 hours at room temperature. FIG. 8 illustrates a graph in which respective experimental results are overlapped.

[6] = test system: HEK293 cells; experiment: Tracking of labeled lactic acid bacteria (Yakult)-derived extracellular vesicles introduced into cells (Example 16); type: cell-based
Experimental: as §1
Experiments were performed in the same procedure as in Example 15 except that, instead of milk-derived extracellular vesicles, lactic acid bacteria (Yakult)-derived extracellular vesicles were used. FIG. 7 illustrates the result.

[7] = test system: lactic acid bacteria (Yakult)-derived extracellular vesicles; experiment: Staining of lactic acid bacteria (Yakult)-derived extracellular vesicles, gel filtration analysis (Example 14 / Comparative example 3); conditions: staining agent 1 μM, room temperature 12 hours
Experimental: The staining agent produced in Example 10 was added to an extracellular vesicle preparation liquid so that the final concentration of the staining agent became 1 μM. Further, 1 μL of the staining agent produced in Comparative example 1 was added to an extracellular vesicle preparation liquid. In Example 10 and Comparative example 1, the staining agent was added to the extracellular vesicle preparation liquid and then allowed to stand at room temperature for 12 hours. After 12 hours elapsed, 10 μL of the reaction product was analyzed by a high-performance liquid chromatography gel filtration system. As the eluent for the column, 10 mM of Tris (pH 6.8), 0.25 mM of EDTA, and 50 mM of NaCl were used. Detection was performed on ExoSP at 560 nm for excitation and 600 nm for fluorescence detection and was performed on the compounds synthesized in Examples 1 to 8 at 480 nm for excitation and 530 nm for fluorescence detection. A column having 3 cm of Gen 2 qEV original/70 nm (by iZQN) and Shodex OHpak SB-807 (by Showa denko) connected to each other was used.
Next, experiments using various lactic fermenting beverages were performed. As the lactic fermenting beverage, A: Yakult (by Yakult), B: Onakayorokobu lactic acid bacteria (by Kurashimoa), and C: Pirkle (by Nissin Foods) were used. Each 500 mL of the lactic fermenting beverages of A to C listed above was centrifuged at 8000 rpm for 30 minutes, and the supernatant was filtrated by a coffee filter. The liquid obtained after the filtration was filtrated by a filter of 0.45 μm (by Sartorius), and the filtrate was filtrated by a filter of 0.033 μm (by GVS). Since extracellular vesicles remain on the filter of 0.033 μm, the extracellular vesicles were washed with 5 mL of phosphate buffer solution three times. Eventually, extracellular vesicles were collected with 1 mL of phosphate buffer solution. […]

SMILES | sensitivity order in staining of pasteurized milk extracellular vesicles [1] | effect of heat treatment on fluorescence intensity [4] | sensitivity order in staining of lactic acid bacteria extracellular vesicles [7] | also measured
CN(C)c1ccc(CCCN(C)C2CCc3cc(OCCCCCCOc4ccc([N+](=O)[O-])c5nonc45)ccc32)cc1 (stereo not shown) [GIF-2280] | highest in the order of GIF-2281, GIF-2280, and GIF-2276 | – | – | –
CN(C)c1ccc(CCCN(C)C2CCc3cc(OCCOc4ccc([N+](=O)[O-])c5nonc45)ccc32)cc1 (stereo not shown) [GIF-2276] | highest in the order of GIF-2281, GIF-2280, and GIF-2276 | significant increase in the fluorescence intensity due to heat treatment | – | tracking of labeled extracellular vesicles in cells ([2]; HEK293 cells, after 3 hours): can be tracked in the cells to which the same was introduced; localization of signals of labeled extracellular vesicles in cells ([2]; lysosomes labeled with LysoBrite Red, microscope after 3 hours): most of signals from extracellular vesicles are localized in the lysosomes; quantification of extracellular vesicles by plate reader ([3]; depiction omitted): successfully quantified; correlation of gel filtration peak area (GIF-2276) with plate reader fluorescence intensity (GIF-2250) ([3]; milk heated at 60, 70, 80° C. for 30 minutes, GIF-2276 1 μM, GIF-2250 3 μM): high correlation; peak of milk-derived extracellular vesicles in gel filtration [5]: a clear peak due to the size of milk-derived extracellular vesicles was found; tracking of labeled extracellular vesicles in cells [6]: can be tracked in the cells to which the same was introduced
CN(C)c1ccc(CN(C)C2CCc3cc(OCCn4cc(CCOc5ccc([N+](=O)[O-])c6nonc56)nn4)ccc32)cc1 (stereo not shown) [GIF-2274] | – | significant increase in the fluorescence intensity due to heat treatment | – | –
CN(C)c1ccc(CCCN(C)C2CCc3cc(OCCOCCOCCOCCOc4ccc([N+](=O)[O-])c5nonc45)ccc32)cc1 (stereo not shown) [GIF-2282] | – | – | highest in the order of GIF-2277, GIF-2281, and GIF-2282 | –
CN(CCCc1ccc(N(C)C)cc1)Cc1ccc(OCCOc2ccc([N+](=O)[O-])c3nonc23)cc1 [GIF-2281] | highest in the order of GIF-2281, GIF-2280, and GIF-2276 | – | highest in the order of GIF-2277, GIF-2281, and GIF-2282 | –
CN(C)c1ccc(CCCN(C)C2CCc3cc(OCCOCCOc4ccc([N+](=O)[O-])c5nonc45)ccc32)cc1 (stereo not shown) [GIF-2277] | – | significant increase in the fluorescence intensity due to heat treatment | highest in the order of GIF-2277, GIF-2281, and GIF-2282 | –
CN(C)c1ccc(CCCN(C)C2CCc3cc(OCCNc4ccc([N+](=O)[O-])c5nonc45)ccc32)cc1 (stereo not shown) [GIF-2250, reference compound] | – | – | – | peak of milk-derived extracellular vesicles in gel filtration [5]: no peak of milk-derived extracellular vesicles was found
